Results as given in US20240374546A1, “USES AND METHODS FOR PROMOTING INCREASED MITOCHONDRIAL MASS AND FUNCTION” (Brightseed, Inc., priority 2022, published 2024).

Columns and labels:
[1] = Blood count analysis (Hemavet); format: in vivo, mouse; conditions: HFD versus HFD+NCT
Procedure: Mice were anesthetized and 20 μL of whole blood was collected via retro-orbital bleeding in lithium heparin blood collection tubes and 20 different hematologic parameters were measured using a Hemavet 950 FS blood count analyzer (Drew Scientific Group).

palmitate-loaded cells = test: Fat clearance from palmitate-loaded cells; format: cell-based; conditions: in vitro
Sirt1 mRNA = test: qPCR mouse liver, Sirtuin1 mRNA; format: in vivo; conditions: HFD+NCT vs HFD
Procedure: (§1) Total RNA was isolated from liver tissues and primary human hepatocytes using Trizol (Invitrogen). cDNA was amplified using 3 μg of total RNA using qScript cDNA SuperMix (Quanta BioSciences, Beverly, MA, USA). Quantitative real time PCR (RT-PCR) analysis was performed using SYBR® Select Master Mix (Applied Biosystems) and an ABI 7900HT thermal cycler (Applied Biosystems, Thermo Fisher Scientific). Ct values were normalized to 18s rRNA and are expressed as fold change over samples from mice fed NC or cultured human hepatocytes without NCT.

TNFα mRNA = test: qPCR primary human hepatocytes, TNFα mRNA; format: cell-based; conditions: NCT 5, 15, 40 μM
Procedure: Experiments with primary human hepatocytes were performed by CN-Bio (Cambridge, UK). Briefly, primary human hepatocytes (PHHs), human Kupffer cells (HKs) and human stellate cells (HSCs) were seeded onto CN-Bio's PhysioMimix LC12 MPS culture plates at 6×10^5 cells for PHHs and 6×10^4 cells for HKs and HSCs in 1.6 ml of CN-Bio's HEP-lean media with 5% FCS. Throughout the experiment the cells were maintained at a flow rate of 1 μl/s. After 24 hours (Day 1) of seeding, the media was changed to HEP-lean media and the cells were incubated until day 4 to allow the cells to form microtissues. At day 4 post seeding, media was changed to HEP-fat media and treated with DMSO or NCT (5, 15, 40 μM). Media was replaced on days 6 and 8. Cells were harvested on day 10 for RNA extraction and culture media was collected for ELISA analysis.
as §1

[2] = previous two-week IP administration, obese mice; cited from earlier work
HSP60 mRNA = test: qPCR mouse liver, HSP60 mRNA; format: in vivo; conditions: HFD+NCT vs HFD
Procedure: as §1

PPARGC1A mRNA = test: qPCR mouse liver, PPARGC1A mRNA; format: in vivo; conditions: ten weeks of oral NCT
Procedure: as §1

IL-1P mRNA = test: qPCR mouse liver, IL-1β mRNA; format: in vivo; conditions: HFD+NCT vs HFD
Procedure: as §1

[3] = test system: mitochondrial DNA (ND1, 16S rRNA); test: Mitochondrial DNA analysis in mouse liver; format: in vivo; conditions: normalized with HK2
Procedure: Quantification of mtDNA was performed as described (BCurr Protoc Mouse Biol 2017; 7:47-54). Snap frozen mouse liver was homogenized and total cellular DNA was extracted with a QIAamp DNA kit (Qiagen) followed b PCR with the primers below: […]

[4] = test system: fatty acid oxidation (FAO); test: Fatty acid oxidation assay in liver lysate; format: in vivo, mouse; conditions: HFD+NCT vs HFD
Procedure: FAO in liver lysate was measured according to manufacturer's instructions using a calorimetric assay kit (Cat #E-141, Biomedical Research Service Centre, State University of New York, Buffalo, NY).
The large weight difference between the HFD and HFD+NCT groups in conjunction with decreased subcutaneous and hepatic adiposity was striking. There are only two routes of fat elimination; in the stool by malabsorption, which it was ruled out (FIG. 1E) and by oxidation. Thus, it was hypothesized that NCT was inducing an increase in FAO. Quantification of FAO was done using an assay that measures NADH by the conversion of iodonitrotetrazolium (INT) to INT-Formazan mediated by the NADH-requiring enzyme diaphorase. Performing the assay in the presence and absence of added octanoyl-CoA, which is converted through fatty acid β-oxidation to acetyl-CoA with conversion of NAD+ to NADH, provides specificity for FAO. The level of fatty acid oxidation is determined as the INT-formazan level in the presence of octanoyl CoA minus the level in the absence of octanoyl CoA.

[5] = Triglyceride analysis in liver, serum and stool; format: in vivo, mouse; conditions: HFD+NCT vs HFD
Procedure: The TG level in mouse liver, serum and stool was measured according to manufacturer's instructions using the Triglyceride Calorimetric Assay Kit (Cat #10010303, Cayman Chemicals, USA). Liver and stool TG was normalized with liver and stool weight, respectively. Fold change was calculated by normalizing to values from mice fed NC.

nitric oxide (NO) = test: Nitric oxide assay, mouse liver; format: in vivo; conditions: HFD+NCT vs HFD, normalized to liver weight
Procedure: T6PNE cells were maintained in RPMI (5.5 mM glucose, Corning) supplemented with 10% fetal bovine serum (FBS, Sigma-Aldrich) and 1% penicillin-streptomycin (pen-strep, Gibco) in 5% CO2 at 37° C. Cells were treated with […] palmitate plus 0 or 15 μM NCT for 3 days in 10 cm plates and harvested with 500 μl PBS. For tissue specimens, snap frozen mouse liver was weighed and homogenized with PBS. NO was measured with the QuantiChrom Nitric Oxide Assay kit (D2NO-100, BioAssay Systems). Homogenized samples (150 μl) were processed for deproteination with 8 μl ZnSO4 and 8 μl NaOH. For normalization, an aliquot of samples from T6PNE cells was taken for BCA assay before deproteination. Samples and standard from kit incubated with reagents for 20 min at 60° C. and measured OD 540 nm.

Question: For `O=C(/C=C/c1ccc(O)c(O)c1)NCCc1ccc(O)cc1` [NCT, N-transcaffeoyltyramine], which hematological analysis [1] is on record?
Answer: Its hematological analysis is “no difference”.

Question: And the “fat clearance from palmitate-loaded cells” value (palmitate-loaded cells)?
Answer: Its value is “induced fat clearance”.

Question: And the “Sirt1 mRNA in mouse liver (effect of HFD)” value (Sirt1 mRNA)?
Answer: Its value is “almost completely reversed”.

Question: What about the “TNFα mRNA in cultured human hepatocytes” value (TNFα mRNA) of the same molecule?
Answer: The value was “decreased in a dose-responsive manner”.

Question: What about the body weight [2] of the same molecule?
Answer: Its body weight is “no effect on body weight”.

Question: And the hepatic steatosis [2]?
Answer: The hepatic steatosis was “decreased hepatic steatosis”.

Question: What about the “HSP60 mRNA in mouse liver” value (HSP60 mRNA) of the same molecule?
Answer: Its value is “greatly decreased”.

Question: What about the “PPARGC1A mRNA in mouse liver” value (PPARGC1A mRNA) of the same molecule?
Answer: Its value is “increased”.

Question: And the “ILI p expression (FIG. 5C, mouse liver)” value (IL-1P mRNA)?
Answer: Its value is “not significantly changed”.

Question: What about the “mitochondrial DNA, 16S rRNA” value [3] of the same molecule?
Answer: Its value is “significant increase”.

Question: And the “mitochondrial DNA, ND1” value [3]?
Answer: Its value is “significant increase”.

Question: What about the “FAO activity in the presence of octanoyl CoA” value [4] of the same molecule?
Answer: Its value is “increase”.

Question: What about the “baseline activity in the absence of octanoyl CoA” value [4] of the same molecule?
Answer: The value was “increase”.

Question: And the “overall FAO activity (+octanoyl CoA minus −octanoyl CoA)” value [4]?
Answer: The value was “unchanged”.

Question: What about the “hepatic TG” value ([5]; normalized to liver weight) of the same molecule?
Answer: The value was “lower TG”.

Question: What about the “circulating TG” value ([5]; serum, 10 weeks) of the same molecule?
Answer: The value was “no difference”.

Question: And the “nitric oxide (NO) in liver” value (nitric oxide (NO))?
Answer: Its value is “decreased”.
